# Reference: patent US9029414B2, “Triterpenoid compounds and methods of use thereof” (Biotechnology Research Corporation, priority 2008, dated 2015)
# What was measured:
# EP4 receptor = EP4 receptor (Homo sapiens, UniProt P35408); test: Radioligand competition binding assay, EP4; settings: EP4, target PGE2; compound at 10 μM in duplicate; read-out: % inhibition of control specific binding
# Protocol: DA001 was further evaluated against 32 receptor binding assays. Radioligand competition assays were conducted whereby DA001 was tested at one concentration (10 uM) in duplicate. […] It could compete with the radioligand [^3H] PGE2 binding at the EP1 and EP4 receptors, and weakly competed with the EP2 and FP receptors.
# To determine the targets of DA compounds, the compound was assessed in binding assays for the family of prostanoid receptors. Both compounds were tested at a single concentration (10 μM) in duplicate. DA001 and DA021 inhibit the ligand binding of prostaglandin E2 receptors EP1, EP2 and EP4 and moderately to prostaglandin (PGF) to its receptor (FP), but not prostaglandin I (PGI2), thromoboxane A and prostaglandin D2 to their receptors.
# cortical neurons = test: Cortical neuron survival assay against kainate excitotoxicity (LDH); type: cell-based, Sprague-Dawley rats; settings: kainate 5-500 μM 20 min; for protection from kainate-induced excitotoxicity (LDH release): 30 μM 24 hrs
# Protocol: Cortical neurons were prepared from embryonic day 18 Sprague-Dawley rats. After the cortices had been removed from the brain, isolated cells were plated onto Poly d-Lysine (PDL) (P0899, Sigma)-coated 48 well plates (150687, NUNC) at a density of 2×10^5 cell per well using Neurobasal Medium (NB) (21103-049, Gibco) with B27 supplement (17504-044, Gibco), penicillin/streptomycin (15140, Gibco) and 1 mM L-glutamine (25030, Gibco). The cell culture was incubated at 37° C. in a humidified atmosphere of 5% CO2 in air. Medium was changed to growth medium (Neurobasal Medium with penicillin/streptomycin and B27 supplement) after 3 hours. Half medium was changed with growth medium every 2-3 days to maintain the cells until day 10 in vitro (DIV 10). Serial dilutions of samples were prepared in growth medium and DMSO was used as vehicle control. For pre-treating assay, half of the medium was removed from wells, and equal amount of diluted samples were replaced. Cells were then incubated for 2 hours at 37° C. in a humidified atmosphere of 5% CO2 in air. Culture was subsequently rinsed with Locke's solution (5 mM potassium chloride, 128 mM sodium chloride, 2.7 mM calcium chloride, 1 mM di-sodium hydrogen orthophosphate, 5 mM HEPES and 10 mM Glucose in Milli-Q water), then incubated with Locke's solution in the presence of glycine (10 μM) for 15 minutes before […] treatment. Kainate dissolved in Locke's plus glycine solution was then substituted and incubated for 20 minutes at 37° C. […] Afterwards, cells were incubated in growth medium for 18-24 hours and detected with Cytotoxicity Detection Kit (1644793, Roche). […]
# FIG. 5 illustrates that DA001 protects neurons against differing concentrations of kainate. […] LDH release into the medium was then measured.
# Cortical neurons were treated with DA021 or DA034 and subsequently subjected to varying concentrations of kainate. […] LDH release into the medium was then measured.
# Sequence of EP4 receptor (P35408 whole entry): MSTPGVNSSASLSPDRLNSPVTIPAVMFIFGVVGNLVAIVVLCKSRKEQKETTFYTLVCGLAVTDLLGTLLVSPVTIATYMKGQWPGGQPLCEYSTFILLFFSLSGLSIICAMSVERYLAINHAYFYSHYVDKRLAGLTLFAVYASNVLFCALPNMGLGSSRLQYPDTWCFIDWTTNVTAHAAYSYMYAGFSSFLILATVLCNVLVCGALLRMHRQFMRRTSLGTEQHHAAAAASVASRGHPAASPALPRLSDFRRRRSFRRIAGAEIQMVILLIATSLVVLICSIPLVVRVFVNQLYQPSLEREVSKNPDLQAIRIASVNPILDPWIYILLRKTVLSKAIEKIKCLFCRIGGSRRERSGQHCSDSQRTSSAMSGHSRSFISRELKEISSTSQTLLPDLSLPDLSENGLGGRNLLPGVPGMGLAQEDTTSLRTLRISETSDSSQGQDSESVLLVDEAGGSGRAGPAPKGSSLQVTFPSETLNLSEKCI
SMILES,inhibition at 10 µM (EP4 receptor) [%],protection from kainate-induced excitotoxicity (LDH release) (cortical neurons),"cell death (LDH release) vs DMSO control (cortical neurons; 40 μM 24 hrs, at high concentrations of kainate)"
C=C(C)[C@@H]1CC[C@]2(/C=N/O)CC[C@]3(C)C(CCC4[C@@]5(C)CCC(=O)[C@@](C)(CO)[C@@H]5CC[C@]43C)C12 (some centres unmarked) [DA021],36,protect neurons against differing concentrations of Kainate,–
"C=C(C)[C@@H]1CC[C@]2(C(=O)O)CC[C@]3(C)C(CC[C@@H]4[C@@]5(C)CC[C@H](O[C@@H]6OC[C@H](O)[C@H](O)[C@H]6O[C@@H]6O[C@@H](C)[C@H](O)[C@@H](O)[C@H]6O)[C@@](C)(CO)[C@@H]5CC[C@]43C)[C@@H]12 (stereo partly drawn) [DA001, 3-O-[α-L-rhamnopyranosyl-(1→2)-α-L-arabinopyranosyl]-3,23-dihydroxy-20(29)-lupen-28-oic acid]",49,–,significant reduction in cell death
CC(=O)OC[C@]12CC[C@@H](C3(C)CO3)C1C1CCC3[C@@]4(C)CC[C@H](O)[C@@](C)(CO)[C@@H]4CC[C@@]3(C)[C@]1(C)CC2 (some centres unmarked) [DA034],–,protect neurons against differing concentrations of Kainate,–
